Test [1] concerns the target T1, SFRP-1 (Homo sapiens, UniProt Q8N474).
T1 sequence (Q8N474 32-314): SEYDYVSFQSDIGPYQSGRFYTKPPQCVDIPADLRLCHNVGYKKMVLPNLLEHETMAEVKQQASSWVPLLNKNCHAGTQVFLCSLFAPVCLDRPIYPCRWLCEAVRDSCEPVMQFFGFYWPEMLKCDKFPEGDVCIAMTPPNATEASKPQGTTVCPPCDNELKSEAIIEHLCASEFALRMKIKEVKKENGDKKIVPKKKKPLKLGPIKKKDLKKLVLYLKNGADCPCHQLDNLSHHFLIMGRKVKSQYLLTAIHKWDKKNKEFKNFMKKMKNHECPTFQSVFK
The experiment in a line: Cell-based assay for in vitro measurement of SFRP-1/SARP2 antagonist activity (U2OS cells co-transfected with 16x TCF-tk-Luciferase reporter, Wnt and hSFRP-1).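 As to all read-outs here: U2OS cells co-transfected with a TCF-tk luciferase reporter, a Wnt vector, hSFRP-1 or empty vector and CMV-βgal, luciferase luminescence read in cell lysates alongside βgal activity.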 As to conditions: for fold induction at 10 µM: U2OS, read-out: Fold Induction with SFRP-1, U2OS cells, single dose 10 μM, luciferase reporter, fold induction over SFRP-1 control.

The target of test [2] is T1, SFRP-1. The experiment in a line: Fluorescence polarization binding assay (competitive displacement of a probe compound from SFRP-1).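 Also: test compound competes with a fluorescent probe held by SFRP-1, seen as a drop in probe anisotropy after incubation in darkness, with anisotropy as function of rising compound dose.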 The note with it: fluorescence anisotropy, 45 nM SFRP-1, 20 nM probe. For orientation: Fluorescence polarisation rises when a labelled molecule tumbles more slowly, as on binding a larger partner.

Counter-ions that a name gives are not always drawn.

A word on the IC50: it is the midpoint of a concentration-inhibition curve. Lower therefore signals greater potency. Broadly, the EC50 is the concentration giving half of the maximal effect. Low readings indicate an effect from little substance, high ones a need for much substance.

For the compound `Cc1ccc(S(=O)(=O)c2ccc(F)cc2)cc1S(=O)(=O)NCC(O)c1cccnc1` (stereo not drawn) [Example 740, 5-[(4-fluorophenyl)sulfonyl]-N-(2-hydroxy-2-pyridin-3-ylethyl)-2-methylbenzenesulfonamide], the fold induction at 10 µM at SFRP-1 [1] worked out at 3.3. Further, the IC50 on SFRP-1 [2] amounted to 6000 nM.
As to `O=S(=O)(NCC(O)c1cccnc1)c1cc(S(=O)(=O)c2ccccc2)ccc1C(F)(F)F` (stereo not drawn) [Example 741, N-(2-hydroxy-2-pyridin-3-ylethyl)-5-(phenylsulfonyl)-2-(trifluoromethyl)benzenesulfonamide], on SFRP-1 [1], a half-maximal effect (EC50) was put at 1000 nM and the fold induction at 10 µM was 4.8. The same compound showed an IC50 at SFRP-1 [2] of 300 nM.
Turning to `CC(C)(C)OC(=O)NCCNS(=O)(=O)c1cc(S(=O)(=O)c2ccccc2)ccc1C(F)(F)F` [Example 742, tert-Butyl[2-({[5-(phenylsulfonyl)-2-(trifluoromethyl)phenyl]sulfonyl}amino)ethyl]carbamate], on SFRP-1 [1], the fold induction at 10 µM was 2.4. The same compound showed an IC50 at SFRP-1 [2] of 280 nM.
Regarding `O=S(=O)(NC1CCOCC1)c1cc(S(=O)(=O)c2cccc(O)c2)ccc1C(F)(F)F` [Example 744, 5-[(3-hydroxyphenyl)sulfonyl]-N-(tetrahydro-2H-pyran-4-yl)-2-(trifluoromethyl)benzenesulfonamide], at SFRP-1 [1], it took 852 nM to reach a half-maximal effect (EC50) and the fold induction at 10 µM amounted to 3.1. For the same compound, on SFRP-1 [2], the IC50 was 200 nM.
Consider `COc1cccc(S(=O)(=O)c2ccc(C(F)(F)F)c(S(=O)(=O)NCCC#N)c2)c1` [Example 745, N-(2-cyanoethyl)-5-[(3-methoxyphenyl)sulfonyl]-2-(trifluoromethyl)benzenesulfonamide], for which, on SFRP-1 [1], a half-maximal response (EC50) required 631 nM and the fold induction at 10 µM amounted to 4.5. The half-maximal inhibitory concentration (IC50) on SFRP-1 [2] stood at 400 nM.
`COc1cccc(S(=O)(=O)c2ccc(C(F)(F)F)c(S(=O)(=O)NC3CCN(C(=O)c4ccc(C(C)(C)C)cc4)CC3)c2)c1` [Example 746, N-[1-(4-tert-butylbenzoyl)piperidin-4-yl]-5-[(3-methoxyphenyl)sulfonyl]-2-(trifluoromethyl)benzenesulfonamide]: on SFRP-1 [1], it took 453 nM to reach a half-maximal effect (EC50) and the fold induction at 10 µM was determined as 5. Moreover, on SFRP-1 [2], the IC50 worked out at 300 nM.
`COc1cccc(S(=O)(=O)c2ccc(C(F)(F)F)c(S(=O)(=O)NCCc3cccnc3)c2)c1` [Example 747, 5-[(3-methoxyphenyl)sulfonyl]-N-(2-pyridin-3-ylethyl)-2-(trifluoromethyl)benzenesulfonamide]: on SFRP-1 [1], the EC50 is 779 nM and the fold induction at 10 µM was 5.7. Besides, at SFRP-1 [2], the IC50 worked out at 90 nM.
Regarding `O=S(=O)(NC1CCN(Cc2ccc(C(F)(F)F)cc2)CC1)c1cc(S(=O)(=O)c2ccccc2)ccc1C(F)(F)F` [Example 749, 5-(phenylsulfonyl)-2-(trifluoromethyl)-N-{1-[4-(trifluoromethyl)benzyl]piperidin-4-yl}benzenesulfonamide], the fold induction at 10 µM at SFRP-1 [1] came to 1.7. This compound had an IC50 at SFRP-1 [2] of 3000 nM.
In the case of `N#CCN1CCC(NS(=O)(=O)c2cc(S(=O)(=O)c3ccccc3)ccc2C(F)(F)F)CC1` [Example 750, N-[1-(cyanomethyl)piperidin-4-yl]-5-(phenylsulfonyl)-2-(trifluoromethyl)benzenesulfonamide], on SFRP-1 [1], the EC50 is 937 nM and the fold induction at 10 µM amounted to 4.2. In addition, the IC50 at SFRP-1 [2] worked out at 200 nM.
For `O=C(CN1CCC(NS(=O)(=O)c2cc(S(=O)(=O)c3ccccc3)ccc2C(F)(F)F)CC1)c1ccccc1` [Example 751, N-[1-(2-oxo-2-phenylethyl)piperidin-4-yl]-5-(phenylsulfonyl)-2-(trifluoromethyl)benzenesulfonamide], on SFRP-1 [1], the EC50 amounted to 4850 nM and the fold induction at 10 µM is 3.1. On SFRP-1 [2], this compound showed an IC50 of 300 nM.
For `N#CCCNS(=O)(=O)c1cc(S(=O)(=O)c2cccc(Cl)c2)ccc1C(F)(F)F` [Example 752, 5-[(3-chlorophenyl)sulfonyl]-N-(2-cyanoethyl)-2-(trifluoromethyl)benzenesulfonamide], in that order: 1090 nM, 3.8 and 400 nM.
`CC(C)(C)c1ccc(C(=O)N2CCC(NS(=O)(=O)c3cc(S(=O)(=O)c4cccc(Cl)c4)ccc3C(F)(F)F)CC2)cc1` [Example 753, N-[1-(4-tert-butylbenzoyl)piperidin-4-yl]-5-[(3-chlorophenyl)sulfonyl]-2-(trifluoromethyl)benzenesulfonamide]: the fold induction at 10 µM at SFRP-1 [1] amounted to 3.8. The compound further gave an IC50 on SFRP-1 [2] of 700 nM.
Consider `O=S(=O)(NC1CCOCC1)c1cc(S(=O)(=O)c2cccc(Cl)c2)ccc1C(F)(F)F` [Example 754, 5-[(3-chlorophenyl)sulfonyl]-N-(tetrahydro-2H-pyran-4-yl)-2-(trifluoromethyl)benzenesulfonamide], for which, on SFRP-1 [1], the EC50 is 1980 nM and the fold induction at 10 µM turned out to be 2.5. The compound further gave an IC50 at SFRP-1 [2] of 400 nM.
With `O=S(=O)(NCCc1cccnc1)c1cc(S(=O)(=O)c2cccc(Cl)c2)ccc1C(F)(F)F` [Example 755, 5-[(3-chlorophenyl)sulfonyl]-N-(2-pyridin-3-ylethyl)-2-(trifluoromethyl)benzenesulfonamide], on SFRP-1 [1], the EC50 is 1430 nM and the fold induction at 10 µM amounted to 3.8. The compound further showed an IC50 on SFRP-1 [2] of 160 nM.
As to `O=S(=O)(NCC(O)c1ccccn1)c1cc(S(=O)(=O)c2ccccc2)ccc1C(F)(F)F` (stereo not drawn) [Example 757, N-(2-hydroxy-2-pyridin-2-ylethyl)-5-(phenylsulfonyl)-2-(trifluoromethyl)benzenesulfonamide], at SFRP-1 [1], the fold induction at 10 µM came out at 3.1. Further, the IC50 on SFRP-1 [2] was found to be 1100 nM.
In the case of `O=C(c1ccccc1OC(F)(F)F)N1CCC(NS(=O)(=O)c2cc(S(=O)(=O)c3ccccc3)ccc2C(F)(F)F)CC1` [Example 758, 5-(phenylsulfonyl)-N-{1-[2-(trifluoromethoxy)benzoyl]piperidin-4-yl}-2-(trifluoromethyl)benzenesulfonamide], on SFRP-1 [1], the EC50 was 582 nM and the fold induction at 10 µM is 3.4. This compound showed an IC50 on SFRP-1 [2] of 300 nM.
With `CC(C)(C)c1ccc(NC(=O)N2CCC(NS(=O)(=O)c3cc(S(=O)(=O)c4ccccc4)ccc3C(F)(F)F)CC2)cc1` [Example 759, N-(4-tert-butylphenyl)-4-({[5-(phenylsulfonyl)-2-(trifluoromethyl)phenyl]sulfonyl}amino)piperidine-1-carboxamide], on SFRP-1 [1], the fold induction at 10 µM was 3.5. In addition, the IC50 on SFRP-1 [2] came to 1600 nM.
Take `CC(C)(C)c1ccc(C(=O)N2CCC(NS(=O)(=O)c3cc(S(=O)(=O)c4ccccc4)ccc3C(F)(F)F)C2)cc1` (stereo not drawn) [Example 761, N-[1-(4-tert-butylbenzoyl)pyrrolidin-3-yl]-5-(phenylsulfonyl)-2-(trifluoromethyl)benzenesulfonamide]: on SFRP-1 [1], the EC50 was found to be 1570 nM and the fold induction at 10 µM came out at 3.2. The compound also displayed an IC50 on SFRP-1 [2] of 600 nM.
For `NCCNS(=O)(=O)c1cc(S(=O)(=O)c2ccccc2)ccc1C(F)(F)F` [Example 762, N-(2-Aminoethyl)-5-(phenylsulfonyl)-2-(trifluoromethyl)benzenesulfonamide hydrochloride], at SFRP-1 [1], the fold induction at 10 µM amounted to 2.2. At SFRP-1 [2], this compound had an IC50 of 2100 nM.
For `O=S(=O)(NC1CCN(c2ccc(C(F)(F)F)cc2)CC1)c1cc(S(=O)(=O)c2ccccc2)ccc1C(F)(F)F` [Example 763, 5-(phenylsulfonyl)-2-(trifluoromethyl)-N-{1-[4-(trifluoromethyl)phenyl]piperidin-4-yl}benzenesulfonamide], in that order: 2.7 and 1700 nM.
For `CC(C)(C)c1ccc(C(=O)N2CCC(NS(=O)(=O)c3cc(S(=O)(=O)c4cccc(O)c4)ccc3C(F)(F)F)CC2)cc1` [Example 764, N-[1-(4-tert-butylbenzoyl)piperidin-4-yl]-5-[(3-hydroxyphenyl)sulfonyl]-2-(trifluoromethyl)benzenesulfonamide], on SFRP-1 [1], the midpoint of the response, the EC50, lay at 463 nM and the fold induction at 10 µM was 0.6. On SFRP-1 [2], the IC50 was 270 nM.
For `O=S(=O)(NCC1CCOCC1)c1cc(S(=O)(=O)c2ccccc2)ccc1C(F)(F)F` [Example 765, 5-(phenylsulfonyl)-N-(tetrahydro-2H-pyran-4-ylmethyl)-2-(trifluoromethyl)benzenesulfonamide], in that order: 754 nM, 3.7 and 190 nM.
As to `O=S(=O)(NCCN1CCOCC1)c1cc(S(=O)(=O)c2ccccc2)ccc1C(F)(F)F` [Example 766, N-(2-morpholin-4-ylethyl)-5-(phenylsulfonyl)-2-(trifluoromethyl)benzenesulfonamide], at SFRP-1 [1], the EC50 was 1220 nM and the fold induction at 10 µM was 2.7. Also, at SFRP-1 [2], the IC50 amounted to 400 nM.
Consider `O=S(=O)(NCCCN1CCOCC1)c1cc(S(=O)(=O)c2ccccc2)ccc1C(F)(F)F` [Example 767, N-(3-morpholin-4-ylpropyl)-5-(phenylsulfonyl)-2-(trifluoromethyl)benzenesulfonamide], for which, on SFRP-1 [1], the fold induction at 10 µM was determined as 3.6. The same compound had an IC50 at SFRP-1 [2] of 900 nM.
`COCCCNS(=O)(=O)c1cc(S(=O)(=O)c2ccccc2)ccc1C(F)(F)F` [Example 768, N-(3-methoxypropyl)-5-(phenylsulfonyl)-2-(trifluoromethyl)benzenesulfonamide]: at SFRP-1 [1], the midpoint of the response, the EC50, lay at 1130 nM and the fold induction at 10 µM was found to be 3.4. Besides, the IC50 on SFRP-1 [2] amounted to 400 nM.

These data come from patent US20060276464A1, “Diarylsulfone sulfonamides and use thereof” (Wyeth, priority 2005, published 2006).
